Among the data in the Deep4Chem optical property database are absorption maximum values, retold here.

Where “and” joins values, the source holds several entries; their conditions need not be identical. Identical values can stand only once.

This data set is described as follows: solvent given as SMILES.

`Cc1ccc2nc3c(nc2c1)c(-c1ccccc1)nn3C` returned an absorption maximum (in C1CCCCC1) of 424 nm, an absorption maximum (in C1CCOC1) of 425 nm and an absorption maximum (in CC#N) of 423 nm.
In turn, `COc1ccc(-c2nnc(-c3cc(-n4c5ccccc5c5ccccc54)c(-n4c5ccccc5c5ccccc54)cc3-c3nnc(-c4ccc(OC)cc4)o3)o2)cc1` displayed an absorption maximum (in ClCCl) of 353 nm.
As to `Cc1cccc(C)c1-c1cc2c(C)c3c4ccc5nc6c(ccc7c8c(C)c9cc(-c%10c(C)cccc%10C)c(-c%10c(C)cccc%10C)cc9c(C)c8c76)nc5c4c3c(C)c2cc1-c1c(C)cccc1C`, the absorption maximum (in ClC(Cl)Cl) worked out at 501 nm.
With `CCN1CCCc2cc3c(cc21)Oc1cc2c(cc1=N3)C(CS(=O)(=O)[O-])CC(C)(C)[N+]=2CCCC(=O)[O-]` (configuration not stated), the absorption maximum (in O) is recorded as 655 nm.
On to `c1ccc(-c2ccc(-c3ccccc3)cc2)cc1`, for which the absorption maximum (in C1CCOC1) is 281 nm, the absorption maximum (in C1COCCO1) is given as 276 nm and the absorption maximum (in CCO) worked out at 280 nm.
With `Cc1ccc(C2=C3C=C(I)C=[N+]3[B-](F)(F)n3cccc32)cc1`, the absorption maximum came to 523.5 nm (in C1CCCCC1); 516.5 nm (in CC#N); 518 nm (in CCO); 517 nm (in CCOC(C)=O); 516.5 nm (in CO); 513 nm (in OCC(F)(F)F).
In turn, `c1ccc2c(c1)-c1ccccc1C21c2ccccc2-c2oc3c(c21)C1(c2ccccc2-c2ccccc21)c1ccccc1-3` displayed an absorption maximum (in C1CCOC1) of 367 nm.
As for `COc1ccc(C#Cc2nc3ccccc3nc2-c2ccn(-c3ccccc3)c2)cc1`, the absorption maximum (in ClCCl) was 393 nm.
As to `c1ccc2c(c1)ccc1ncc3ccc4cnccc4c3c12`, the absorption maximum (in CC#N) turned out to be 403 nm.
Regarding `c1ccc2c(c1)Sc1ccccc1N2c1ccc2c(c1)C1(CC1)c1cc(N3c4ccccc4Sc4ccccc43)ccc1-2`, where the note is “in Cc1ccccc1”, the absorption maximum is given as 307 nm.
With `Cc1ccc(-c2ccc(-c3ccc(C)cc3)c(/C(=C(/c3ccccc3)c3cc(-c4ccc(C)cc4)ccc3-c3ccc(C)cc3)c3ccccc3)c2)cc1`, where the note is “in C1CCOC1”, the absorption maximum is given as 282 nm.
In the case of `Cc1ccc2ccc3c(C)ccc4ccc1c2c43`, the absorption maximum reads like this: (in CCCCCC) 344 nm; (in CO) 344 nm; (in ClCCl) 346 nm.
For the compound `CCC1=C(C)C2=C(C)c3c(C)c(CC)c(C)n3[B-](F)(F)[N+]2=C1C`, the absorption maximum is, setting by setting: (in C1CCCCC1) 522.5 nm; (in C1CCOC1) 518.4 nm; (in C1COCCO1) 518.6 nm; (in CC#N) 514.8 nm; (in CC(C)=O) 516 nm; (in CC(C)O) 518.8 nm. For the same compound, the absorption maximum is reported as 520.4 nm (in CCC(C)C); 521.1 nm (in CCCCCC); 521.2 nm (in CCCCCCCC); 521.8 nm (in CCCCCCCCCCO); 521 nm (in CCCCCCCCO); 520.4 nm (in CCCCCCO). For the same compound, the absorption maximum (in CCCCO) was 519.4 nm; the absorption maximum (in CCCO) is on record as 518.9 nm; the absorption maximum (in CCO) came to 517.7 nm; the absorption maximum (in CCOC(C)=O) amounted to 516.4 nm; the absorption maximum (in CCOCC) amounted to 518.8 nm; the absorption maximum (in CN1CCCC1=O) turned out to be 518.2 nm. Also, the absorption maximum is, setting by setting: (in CN(C)C=O) 517.1 nm; (in CO) 516.2 nm; (in Cc1ccccc1) 522.5 nm; (in ClCCl) 520 nm; (in OCC(F)(F)F) 515.7 nm; (in OCCO) 518 nm. This compound also returned an absorption maximum (in OCCOc1ccccc1) of 522.3 nm and an absorption maximum (in c1ccccc1) of 522.7 nm.
For the compound `CCCCCCc1cc2c(s1)-c1sc(CCCCCC)cc1P(c1ccccc1)(c1ccccc1)=[O+][B-]2(c1c(C)cc(C)cc1C)c1c(C)cc(C)cc1C`, the absorption maximum (in C1CCOC1) was found to be 431 nm.
Where the note is “in Cc1ccccc1”, `c1ccc2c(c1)ccc1ccccc12` displayed an absorption maximum of 295 nm.
For the setting “in ClC(Cl)Cl”, `N#CC1=CC(c2ccccc2)=CC(C#N)=P1(c1ccccc1)c1ccccc1` had an absorption maximum of 480 nm.
With `COc1nc(Nc2ccc3ccc4cccc5ccc2c3c45)nc(OC)n1`, the absorption maximum runs as follows: (in CC#N) 340 nm; (in CCCCOCCCC) 341 nm; (in CO) 340 nm.
On to `N#Cc1c(-n2nnc3c2-c2ccccc2CN(C(=O)CCN)c2ccccc2-3)n([C@H]2C[C@H](O)[C@@H](CO)O2)c2ncnc(N)c12`, for which the absorption maximum (in CO) stood at 290 nm.
As for `[C-]#[N+]c1ccc(-c2ccc(N(C)C)cc2)cc1`, the absorption maximum reads like this: (in C1CCCCC1) 325 nm; (in C1CCOC1) 334 nm; (in C1COCCO1) 330 nm; (in CC#N) 333 nm; (in CC(C)=O) 327 nm; (in CCCCCC) 323 nm. Also, the absorption maximum is, setting by setting: (in CCOC(C)=O) 330 nm; (in CN(C)C=O) 339 nm; (in CO) 333 nm; (in CS(C)=O) 340 nm; (in Cc1ccccc1) 329 nm; (in ClC(Cl)Cl) 331 nm. Besides, the absorption maximum is, setting by setting: (in ClCCl) 336 nm; (in O) 315 nm; (in c1ccncc1) 340 nm.
On to `CCOC(=O)CCCCCn1c2ccccc2c(=O)c2cc3c(cc21)c(=O)c1ccccc1n3CC`, for which the absorption maximum (in CO) was determined as 528 nm.
As to `CC1=[N+]2C(=C(c3ccccc3)c3ccc(/C=C/c4ccc(C(=C(c5ccccc5)c5ccccc5)c5ccccc5)cc4)n3[B-]2(F)F)C=C1`, the absorption maximum (in C1CCOC1) was 585 nm.
Regarding `N#C/C(=C\c1ccc(C=C(c2ccccc2)c2ccccc2)cc1)c1ccccc1`, the absorption maximum (in C1CCOC1) was determined as 366 nm.
Same read-out and setting: the same measure for `O=P1(c2ccccc2)C(c2ccc(C3=Cc4ccccc4P3(=O)c3ccccc3)cc2)=Cc2ccccc21` (configuration not stated): 387 nm.
Under “in ClCCl”, `CCOC(=O)c1ccc(C2CC(c3cccc4ccccc34)=NN2c2ccc(Cl)cc2)cc1` (configuration not stated) yielded an absorption maximum of 378 nm.
Regarding `CCOC(=O)CCCCCn1c2ccc(N)cc2c(=O)c2cc(N)ccc21`, the absorption maximum (in O) is on record as 455 nm.
In the case of `CCCCCC(=O)c1cccc2sc3c(c12)P(=O)(c1ccccc1)c1ccccc1-3` (configuration not stated), the absorption maximum (in ClCCl) was 359 nm and 380 nm.
For the compound `CC(=O)Nc1ccc2ccc3cccc4ccc1c2c34`, the absorption maximum is, setting by setting: (in CC#N) 339 nm; (in CCCCOCCCC) 341 nm; (in CO) 338 nm.
As for `COc1ccc(/C=C/C2=C3CCc4ccccc4C3=[O+][B-](F)(F)O2)cc1`, the absorption maximum (in ClCCl) stood at 467 nm.
Still for that read-out and setting: the same measure for `CCCCCCCCOc1ccc(C#Cc2ccc3oc4ccccc4c3c2)c(OCCCCCCCC)c1`: 314 nm.
Consider `CCCCCCCCC1(CCCCCCCC)c2cc(-c3ccc(C=C4C(=O)c5ccccc5C4=O)cc3)ccc2-c2ccc(-c3ccc(C=C4C(=O)c5ccccc5C4=O)cc3)cc21`, for which the absorption maximum (in C1CCOC1) was found to be 436 nm; the absorption maximum (in CC(C)=O) came to 433 nm; the absorption maximum (in CCCCCC) is given as 419 nm; the absorption maximum (in CS(C)=O) came out at 441 nm; the absorption maximum (in Cc1ccccc1) is given as 429 nm; the absorption maximum (in ClC(Cl)Cl) was determined as 444 nm.
As to `CCCCCCn1c2c(c3ccccc31)-c1c(c3ccccc3n1CCCCCC)-c1c(c3ccccc3n1CCCCCC)-c1c-2c2ccccc2n1CCCCCC`, the absorption maximum (in ClCCl) came out at 312 nm.
Same read-out and setting: the same measure for `COc1ccc(-c2c3ccccc3c(C#Cc3ccccc3)c3cc4cc(C)sc4cc23)cc1`: 481 nm.
`Cc1ccc(C2=C3C=CC(Oc4ccccc4)=[N+]3[B-](F)(F)n3c(Oc4ccccc4)ccc32)cc1`: the absorption maximum (in C1CCOC1) is 516 nm.
Where the note is “in Cc1ccccc1”, `Cc1cc(C)c(-c2nnc(-c3ccc(-n4c5ccccc5c5ccccc54)cc3)o2)c(C)c1` came in with an absorption maximum of 340 nm.
Regarding `CCCCCCCCCCC1(CCCCCCCCCC)c2cc(N3C(=O)c4ccc5c6ccc7c8c(ccc(c9ccc(c4c59)C3=O)c86)C(=O)N(c3ccc4c(c3)C(CCCCCCCCCC)(CCCCCCCCCC)c3cc(N(c5ccccc5)c5ccccc5)ccc3-4)C7=O)ccc2-c2ccc(N(c3ccccc3)c3ccccc3)cc21`, the absorption maximum by setting is: (in Cc1ccccc1) 528 nm; (in ClCCl) 527 nm.
Regarding `Cc1cccc(C)c1/C=C/c1nc(N2CCOCC2)c2c([n+]1[O-])CCCC2`, the absorption maximum (in ClCCl) came to 384 nm.
Still for that read-out and setting: to `COc1cc2c(cc1OC)C1=C[C@H](c3ccc(C)cc3)C3(C(C#N)=C(C#N)N1CC2)c1cc(Cl)ccc1-c1ccc(Cl)cc13` belongs 315 nm.
As to `COC(=O)C(NC(=O)OC(C)(C)C)c1ccc2oc(-c3ccc(N(C)C)cc3OC)nc2c1` (configuration not stated), the absorption maximum by setting is: (in CC1CCCCC1) 336 nm; (in CC#N) 343 nm; (in CO) 346 nm.
Regarding `F[B-]1(F)OC(c2cccc(Br)c2)=Cc2c3ccccc3c3ccccc3[n+]21`, the absorption maximum (in ClC(Cl)Cl) is reported as 432 nm.
Still for that read-out and setting: to `F[B-]1(F)n2cccc2C(c2ccccc2)=C2C=CC(c3cccc(OC4=[N+]5C(=C(c6ccccc6)c6cc(Br)c(Br)n6[B-]5(F)F)C=C4Br)c3)=[N+]21` belongs 556 nm.
As for `CC(C)(C)c1ccc(C2=C(c3ccc(-n4c5ccccc5c5ccccc54)cc3)S(=O)(=O)c3c2sc(-c2ccc(-n4c5ccccc5c5ccccc54)cc2)c3-c2ccc(C(C)(C)C)cc2)cc1`, for the setting “in C1CCOC1”, the absorption maximum was 419 nm.
Regarding `COc1ccc(-c2c3nc(cc4ccc([nH]4)c(-c4ccc(OC)c(OCCCC(=O)O)c4)c4nc(cc5ccc2[nH]5)C=C4)C=C3)cc1OCCCC(=O)O`, the absorption maximum (in CS(C)=O) is 634 nm.
Regarding `O=C(O)c1ccc(C2=C(/C=C/c3[se]c4ccccc4[n+]3CCCCS(=O)(=O)[O-])CCC/C2=C\C=C2/[Se]c3ccccc3N2CCCCS(=O)(=O)[O-])cc1`, the absorption maximum (in CO) was 800 nm.
Where the note is “in C1CCOC1”, `N#Cc1c(N2CCCCC2)cc(-c2ccc3ccccc3c2)c2c1Cc1ccccc1-2` yielded an absorption maximum of 362 nm.
`CCOC(=O)c1c(-c2cc3cc4c(cc3oc2=O)OC(C)(C)CC4)nn(-c2ccccc2)c1C(=O)OCC`: the absorption maximum (in ClCCl) was determined as 348 nm.
